Measured values: patent US8962652B2, “Derivatives of purine or deazapurine useful for the treatment of (inter alia) viral infections” (Gilead Sciences, Inc., priority 2009, dated 2015)

Test system: human Peripheral Blood Mononuclear Cell (PMBC)
Experiment: PBMC assay: cytokine (IFN-alpha) stimulation at 24 hours
Format: cell-based
Conditions: minimum concentration for induction of IFN-alpha = 3-fold over background
Experimental: Assays were conducted to determine cytokine stimulation at 24 hours from human Peripheral Blood Mononuclear Cell (PMBC) using the compounds of the present invention. The assays were run in duplicate, with 8-point, half-log dilution curves. The compounds of the present invention were diluted from 10 mM DMSO solution. Cell supernatants are assayed directly for IFNa and 1:10 dilution for TNFa. The assays were performed in a similar fashion as described in Bioorg. Med. Chem. Lett. 16, 4559, (2006). Specifically, cryo-preserved PBMCs were thawed and seeded 96 well plates with 750,000 cells/well in 190 μL/well cell media. The PBMCs were then incubated for 1 hour at 37° C. at […]. Then, the compounds of the present invention were added in 10 μL cell media at 8 point, half-log dilution titration. The plates were incubated at 37° C. and 5% CO2 for 24 hours and then spinned at 1200 rpm for 10 min, which was followed by collecting supernatant and storing the same at −80° C. Cytokine secretion was assayed with Luminex and Upstate multi-plex kits, using a Luminex analysis instrument. IFN MEC value for a compound was the minimum concentration at which IFN-a production stimulated by the compound reached three fold above background, as determined using the assay method above.

Structure (SMILES)	minimal effective concentration (read-out: MEC) [µM]	MEC
COCCOc1cc2c([nH]c(=O)n2Cc2ccc(-c3ccc(CN4CCCC4)cc3)cc2)c(N)n1 [AX]	0.001 to 0.009	–
CCCCOc1nc(N)c2[nH]c(=O)n(Cc3cccc(-c4ccccc4CN4CCCC4)c3)c2n1 [A]	–	d (d: 100 nM-1000 nM)
